Test results reported in ChEMBL document CHEMBL1155085, “Propindilactones E-J, Schiartane Nortriterpenoids from Schisandra propinqua var. propinqua” (J Nat Prod, 2008).

Tests used:
Type in all cases: functional, cell-based
A549 = experiment: Cytotoxicity against human A549 cells after 72 hrs by sulforhodamine B assay; conditions: A549, 72 h
K562 = experiment: Cytotoxicity against human K562 cells after 72 hrs by sulforhodamine B assay; conditions: K562, 72 h
HT-29 = experiment: Cytotoxicity against human HT29 cells after 72 hrs by sulforhodamine B assay; conditions: HT-29, 72 h

Measured: IC50

C[C@@H]([C@@H](O)[C@@H]1C[C@@H](C)C(=O)O1)[C@H]1[C@@H](O)[C@H](O)[C@]2(O)[C@@H]3C[C@H]4C(C)(C)O[C@@H]5CC(=O)O[C@@]54CC[C@@]3(O)CC[C@]12C [PRPINDILACETONES H]
> 100 µM: all assays above

C[C@@H]([C@@H](O)[C@@H]1C[C@@H](C)C(=O)O1)[C@H]1C[C@H](O)[C@]2(O)[C@@H]3C[C@H]4C(C)(C)O[C@@H]5CC(=O)O[C@@]54CC[C@@]3(O)CC[C@]12C [PRPINDILACETONES I]
> 100 µM: all assays above

CC(=O)O[C@@H]1C[C@]2(O)CC[C@]34OC(=O)C[C@H]3OC(C)(C)[C@@H]4C[C@H]2[C@]23O[C@H]2C[C@H]([C@@H](C)[C@H]2CC=C(C)C(=O)O2)[C@@]13C [PRPINDILACETONES J]
> 100 µM: all assays above
